Data on 2 compounds can be found in patent US20250195687A1, “PEPTIDE-BASED PHOSPHATE BINDER FOR THE TREATMENT OF HYPERPHOSPHATEMIA” (B. G. NEGEV TECHNOLOGIES AND APPLICATIONS LTD., priority 2022, published 2025).

The nature of experiment [1]: 31P NMR phospholipid peak widening by free peptide in FES solution. In kind it is binding. The source says:
^31P NMR-NMR relaxation is the process by which excited magnetic state nuclei return to their equilibrium distribution. At the start of an NMR experiment, the nuclei are “lined up” with the external magnetic field. When an electromagnetic RF field is activated on these nuclei, they resonate at a characteristic resonance frequency, and the NMR signal is created. At that instant, all the nuclei are in phase and coherent. However, due to small differences in their resonance frequencies, they will begin to dephase. The time it takes for the nuclei to dephase is measured by T2 the so-called spin-spin relaxation time. T2 is inversely proportional to Δω, the width of the resonance peak in the spectra measured at half the maximum height: Δω=2/T2. The more slowly a macromolecule tumbles, the shorter its T2; thus, big molecules have broader resonance peaks than small molecules. An increase in molecular size due to interaction or reduced mobility affects the T2 relaxation time and is manifested by widening the NMR signal. […]
The first sample used for FES solution reference was composed of 1 mL FES solution which was placed in a 1.5 mL Eppendorf tube. […] The pH was measured using a pH electrode (Mettler Toledo, SevenComplex) and adjusted to the desired value by dropwise addition of HCl or NaOH solutions. […] The contents of each Eppendorf tube were analyzed separately by NMR as described below.
Solution ^31P NMR data were collected on a Bruker Avance III 400 MHz spectrometer (Bruker BioSpin, Germany). […] A capillary tube insert filled with phosphoric acid solution in D2O (10% v/v phosphoric acid in D2O/H2O) was used for calibration and inserted into the NMR tube that contained the measured sample. […] NMR data was analyzed using TopSpin software (Bruker).
The capability of a free unbound peptide to capture phosphate in the intestinal simulant solutions was examined using P NMR. […] As discussed above, binding is qualitatively evaluated by the decrease in T2 relaxation, or the corresponding widening of the peak associated with the phosphorus nuclei in the molecule and calculated as follows: […]

The nature of experiment [2]: 31P NMR phosphate peak widening by free peptide in intestinal fluid simulants. In kind it is binding. The following applies: for phosphate peak widening: peptide 13.1 mM, phosphate 2.6 mM. The source says:
^31P NMR-NMR relaxation is the process by which excited magnetic state nuclei return to their equilibrium distribution. At the start of an NMR experiment, the nuclei are “lined up” with the external magnetic field. When an electromagnetic RF field is activated on these nuclei, they resonate at a characteristic resonance frequency, and the NMR signal is created. At that instant, all the nuclei are in phase and coherent. However, due to small differences in their resonance frequencies, they will begin to dephase. The time it takes for the nuclei to dephase is measured by T2 the so-called spin-spin relaxation time. T2 is inversely proportional to Δω, the width of the resonance peak in the spectra measured at half the maximum height: Δω=2/T2. The more slowly a macromolecule tumbles, the shorter its T2; thus, big molecules have broader resonance peaks than small molecules. An increase in molecular size due to interaction or reduced mobility affects the T2 relaxation time and is manifested by widening the NMR signal.
In this study, phosphate-binding experiments of free (unattached to silica) peptides in intestinal fluid simulants as function of the surrounding pH were examined. Binding was determined by the widening of the relevant phosphate peaks in phosphorus NMR (^31P NMR) spectra. These experiments aimed to investigate the effect of the background solution containing many components on the ability of the peptide to bind phosphate. ^31P NMR experiments were preferred over standard ^1H NMR since in the former only one (phosphate) or at most two (phosphate and phospholipid) peaks are detected as opposed to the multitude of frequently overlapping, peaks in the spectra of the latter. […]
Samples were prepared by mixing the required amounts of phosphate stock solution, and FAS or FES solutions into one 1.5 mL Eppendorf tube, and phosphate stock, peptide stock, and FAS or FES solution into a second similar tube. in. The pH was measured and adjusted to the desired value as described above. […] The contents of each Eppendorf tube were analyzed separately by NMR as described below. […]

Experiment [3] can be described thus: Colorimetric (molybdenum blue) phosphate binding in intestinal and gastric fluid simulants. Particulars: pH=6 or pH=7.5 (clinical PhB at pH=7.5). The source says:
The binding efficiency of the SiO2-CysHex particles in intestinal and digestive fluid simulants was examined by a colorimetric method. The procedure was based on the determination of the amount of uncaptured phosphate from a solution of known initial phosphate concentration. A spectrophotometric assay referred to as the molybdenum blue reaction was employed. It emits a blue color whose intensity is linearly proportional to the amount of phosphate present in the solution allowing by measurement of color intensity and proper calibration, to determine phosphate concentration. The reaction involves the following two steps: • 1. PO4^3−+12(NH4)2MoO4+24H^+→(NH4)3PO4·12MoO3+21NH4^++12H2O • 2. […]
For this experiment, a phosphate assay kit (Sigma-Aldrich) with a stated concentration range between 0.005 mM and 0.025 mM phosphate was used. The kit included a 10 mM phosphate standard solution and a coloring reagent that reacts with phosphates to form a complex that could be measured and quantified by UV-VIS absorbance spectroscopy. The phosphate standard was used to prepare a calibration curve between the absorbance intensity at a wavelength of 650 nm and phosphate concentrations. […]
A volume of 20 μL of the supernatant filtrate (sec 4.3.3.1.2), 180 μL DI water, and 30 μL coloring reagent were added to a 96 well plate. Two duplicates of each sample were measured, and the resulting values were averaged. […]

For Cys-SGAGKT [CysHex], the “pH of lowest phospholipid binding” value in experiment [1] (absence of phosphate) is listed as approximately 6. For the same compound, in experiment [1] (absence of phosphate, 6.5 peptide molecules per phospholipid molecule, entire relevant pH range), the “phospholipid binding” value was “binds the phospholipid quite effectively”. For the same compound, the “phospholipid peak width (ratio)” value in experiment [1] (pH=6, peptide 13.1 mM and phosphate 2.6 mM present, phospholipid 2 mM, average of three measurements) is 0.93±0.15. Also, the “phosphate peak widening” value in experiment [2] (FAS solution) was “no widening”; in experiment [2] (FES solution), “pH dependent and is maximal at pH values commensurate with values in the GI tract”. Further, in experiment [2] (only in FES), the “pH range in which the peptide captures phosphate” value was 7-8.
With `O=C([O-])[O-].O=C([O-])[O-].O=C([O-])[O-].[La+3].[La+3]` [Lanthanum, Lanthanum carbonate], the Phosphate binding effectiveness in experiment [3] (FAS) amounted to 4.1 mg phosphate/gr PhB; in experiment [3] (FES) it was 0.9 mg phosphate/gr PhB.
